What is called LD50 is the dose at which mortality reaches 50%. The GI50 is the concentration that inhibits growth by half. Higher therefore signals lower sensitivity of the cells. The melting point is the temperature of the solid-liquid transition.

Read-outs that look alike come from different tables or passages of the source.

For one data set, the system named is fulminant hepatitis. The data set is described as follows: Fulminant hepatitis model (galactosamine and LPS). It is filed as in vivo, mouse. The settings on record: BALB/c mice, galactosamine 800 mg/kg and LPS 110 μg/kg i.p. Here is the method: BALB/c male mice (7 weeks old, purchased from Charles River Laboratories Japan Inc.) were used in the experiment. After having orally administered the test substances suspended in 5% HPC, galactosamine (800 mg/kg) and LPS (110 μg/kg) were intraperitoneally administered. Then, survival rates at 72 hours after administration were obtained.

Data set [1] has as its system Rabbit synoviocytes HIG-82. The data set is described as follows: Inhibition assay for proliferation of rabbit synoviocyte. The settings on record: Oryctolagus cuniculus, 72 h; HIG-82, 3 days, Alamar Blue. It is filed as cell-based.
In another data set the test system is U 937 cells. The data set is described as follows: Proliferation inhibitory activity on hematologic neoplasm cells, U937. It is filed as cell-based. The settings on record: Homo sapiens, U-937, 72 h; 3 days, Alamar Blue. On the technique in general: Resazurin is reduced to fluorescent resorufin, in cell work by metabolically active cells.
The next data set has as its system HL 60 cells. The data set is described as follows: Proliferation inhibitory activity on hematologic neoplasm cells, HL60. It is filed as cell-based. The settings on record: Homo sapiens, HL-60, 72 h; 3 days, Alamar Blue.
For another data set, the system named is THP-1 cells. The data set is described as follows: Proliferation inhibitory activity on hematologic neoplasm cells, THP-1. The settings on record: Homo sapiens, THP-1, 72 h; 3 days, Alamar Blue. It is filed as cell-based.
The test system of data set [2] is allogeneic mixed lymphocyte reaction. The data set is described as follows: Allogeneic mixed lymphocyte reaction. The settings on record: Mus musculus, Lymphocyte; C57BL/6N spleen stimulator cells, BALB/c lymph node responder cells, 86 hours, BrdU. It is filed as cell-based, mouse. In a few lines:
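Stimulators were C57BL/6N female spleen cells and responders BALB/c female peripheral lymph node mononuclear cells (mice 8-10 weeks old). Cells suspended at 2×10^6 cells/mL in RPMI 1640 with 10% FBS and antibiotics.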

A further data set relates to mouse spleen cells. The data set is described as follows: Proliferation inhibition assay for mouse spleen cells. It is filed as cell-based. The settings on record: 72 h, 3 days, Alamar Blue. In short, it runs like this: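 C57BL/6N female mouse spleen cells (2×10^6 cells/mL) stimulated with Con A (3 μg/mL), LPS (100 μg/mL) or anti-mouse IgM (100 μg/mL) alongside serially diluted compounds, 3 days at 37° C, 5% CO2. Alamar Blue added for a further day; fluorescence read at ex 530/em 590 nm.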

Another data set has as its system Daudi cells. The data set is described as follows: Proliferation inhibitory activity on hematologic neoplasm cells, Daudi. The settings on record: Homo sapiens, Daudi, 72 h; 3 days, Alamar Blue. It is filed as cell-based.
Data set [3] concerns human peripheral blood mononuclear cells. The data set is described as follows: Proliferation inhibition assay for human peripheral blood mononuclear cells. It is filed as cell-based. The settings on record: Homo sapiens, 72 h; PBMC, anti-CD3 and anti-CD28 antibody, 3 days, Alamar Blue. In a few lines:
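PBMC from healthy donors (1×10^5 cells/mL) in RPMI 1640 with 10% FBS were stimulated with plate-bound anti-CD3 plus anti-CD28 (1 μg/mL). Serially diluted compounds were added and cells were cultured 3 days at 37 °C. Alamar Blue was then added for 1 day and fluorescence was read at ex 530/em 590 nm.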

Data set [4] in a line: Toxicologic test for single oral administration. The settings on record: Sprague-Dawley (SD), rat, in vivo; SD male rats, single oral dose.
In data set [5] the test system is human peripheral blood mononuclear cells. The data set is described as follows: Activation inhibition assay for human peripheral blood mononuclear cells (CD40L, CD69 expression). It is filed as cell-based. The settings on record: PBMC, anti-CD3 + anti-CD28, 6 hours, flow cytometry. Here is the method:
In accordance with the method of Assay Example 2, PBMC (2×10^6 cells/mL) was isolated from human peripheral blood, suspended in RPMI 1640 medium (containing 10% fetal bovine serum, 10 mM HEPES, 1 mM pyruvic acid, and 4.5 g/L glucose), and seeded in wells of a 96 well plate at 0.225 mL per well. The test substances were added to respective wells, and then an anti-CD3 antibody (2 μg/mL) and an anti-CD28 antibody (1 μg/mL) were added. Then, after incubation under conditions of carbon dioxide 5% at a temperature 37° C. for 6 hours, the expressions of CD40L and CD69, activation markers, were analysed by flow cytometry. As a result, when the cells were stimulated by both an anti-CD3 antibody and an anti-CD28 antibody, CD40L was expressed on 14.4% of PBMC, which was also CD4 positive. However, the proportion of the cells which expressed CD40L decreased when the cells had been treated with test substances (Compound 4: 4.9%; Compound 20: 3.7%, Compound 24: 3.6%).
(In general: Flow cytometry measures light scatter and fluorescence of single cells or particles in a stream.)

The subject of a further data set is Jurkat cells. The data set is described as follows: Proliferation inhibitory activity on hematologic neoplasm cells, Jurkat. It is filed as cell-based. The settings on record: Homo sapiens, Jurkat, 72 h; 3 days, Alamar Blue.
Data set [6] deals with Salmonella typhimurium TA98, TA100, TA1535, TA1537 and Escherichia coli WP2uvrA. The data set is described as follows: Ames test. It is filed as cell-based. The settings on record: preincubation method, with or without S-9, up to 5000 μg/flat plate. Here is the method:
Using 5 strains of Salmonella typhimurium TA98, TA100, TA1535, TA1537 and Escherichia coli WP2uvrA, the test substances (Compound 4, Compound 19, Compound 22 and Compound 24) were tested for their mutagenesis according to a preincubation method.

The next data set concerns MCF-7 cells. The data set is described as follows: Proliferation inhibitory activity on solid tumor cells, MCF-7. It is filed as cell-based. The settings on record: Homo sapiens, MCF7; 72 hours. Here is the method:
(§1) Used in the test were MCF-7 cells which were established from human breast cancer and were cultured routinely under the conditions of 37° C. and 5% CO2, in MEM medium supplemented with 10% fetal calf serum, 25 mM of HEPES and 0.1 mg/ml kanamycin. The MCF-7 cells in a logarithmic growth phase were treated with trypsin/EDTA to prepare single cell suspension adjusted to 4.0×10^4 cells/ml in MEM medium (supplemented with 10% fetal calf serum, 25 mM of HEPES and 0.1 mg/ml kanamycin). Test compounds were dissolved in DMSO and diluted with RPMI 1640 medium (supplemented with 10% fetal calf serum, 25 mM of HEPES and 0.1 mg/ml kanamycin) to a concentration of […] to 2.0×10^−9M.
(§2) The cell suspension was filled in a 96-wells microplate at a rate of 0.1 ml per well and was cultured for 24 hours so as to make the cells to adhere to the microplate. Then, it was added with 0.1 ml of the sample solution and cultured at 37° C. for 72 hours in 5% CO2.
(§3) 50% Growth inhibition concentrations (GI50 μM) were calculated from growth inhibitions at various sample concentrations.

A further data set concerns A549 lung cancer cells. The data set is described as follows: Proliferation inhibitory activity on solid tumor cells, A549. It is filed as cell-based. The settings on record: Homo sapiens, 72 hours. Here is the method: as §1, §2, §3
(§4) In the foregoing, when the cells other than MCF-7 are used, instead of adding 10% fetal bovine serum, the following media were used, and the following single cell suspensions were prepared. • PC-3 prostate cancer cells: 10% fetal bovine serum in F12K medium, single cell suspension of 2×10^4 cells; • A549 lung cancer cells: 10% fetal bovine serum in DMEM medium, single cell suspension of 1.5×10^4 cells; • WiDr colon cancer cells: 10% fetal bovine serum in MEM medium, single cell suspension of 3×10^4 cells; • B16F10 melanoma cells: 10% fetal bovine serum in RPMI 1640 medium, single cell suspension of 1×10^4 cells;

Data set [7] deals with PC-3 prostate cancer cells. The data set is described as follows: Proliferation inhibitory activity on solid tumor cells, PC-3. It is filed as cell-based. The settings on record: 72 hours. Here is the method: as §1, §2, §3, §4
A short description of data set [8]: Test for measuring blood level. It is filed as in vivo. The settings on record: mouse, serum; BDF1 male mice, 200 mg/kg oral, one hour after the administration. Here is the method: A pharmacokinetic study was performed using 6 week-old BDF1 male mice. The test substances were mixed with hydroxylpropylcellulose (low-molecular weight form) [HPC(L)] in 2.5-fold of the drug weight, and dissolved in dichloromethane. The solvent was evaporated to dryness. To make the dosing formation, the residue was suspended in distilled water to prepare the drug level of 20 mg/mL. The test compounds were administered compulsorily and orally at a dose of 200 mg/kg to the mice that had been starved for 16 hours. One hour after the administration, blood was collected from the orbits of two mice to obtain serum. Internal standards solution and 1 ml of distilled water were added to 100 μL, of serum thus obtained, and then extracted with diethylether. The solvent was evaporated under vacuum, and the residue was resolved with eluent to provide samples for the HPLC measurement. HPLC was performed by using reversed-phase type column, and acetonitrile-phosphate buffer (pH 2.5) was used as the eluent. Using regression curves (Y=aX+b) obtained from the standards, the drug levels in the sample serum were calculated.

Another data set has as its system WiDr colon cancer cells. The data set is described as follows: Proliferation inhibitory activity on solid tumor cells, WiDr. It is filed as cell-based. The settings on record: Homo sapiens, 72 hours. Here is the method:
as §1, §2, §3, §4

The subject of the next data set is B16F10 melanoma cells. The data set is described as follows: Proliferation inhibitory activity on solid tumor cells, B16F10. It is filed as cell-based. The settings on record: Mus musculus, B16-F10; 72 hours. Here is the method:
as §1, §2, §3, §4

Setting [9] is: LPS 100 μg/mL, read-out: Inhibition of LPS response.
Where [10] appears, read: concanavalin A 3 μg/mL, read-out: Inhibition of Con A response.

In the case of `COc1cccc2c1nc(C(F)F)n2-c1nc(N2CCOCC2)cc(N2C[C@@H](C)O[C@@H](C)C2)n1` [Compound 24, 2-(2-Difluoromethyl-4-methoxybenzimidazol-1-yl)-4-(cis-2,6-dimethylmorpholino)-6-morpholinopyrimidine], the “Survival Rate after 72 Hours” value with fulminant hepatitis (50 mg/kg oral) was 33%; in the data set with fulminant hepatitis (100 mg/kg oral), 67%. In addition, the IC50 in data set [1] was 441 nM; with U 937 cells, 2790 nM; with HL 60 cells it was 823 nM; in the data set on THP-1 cells, 859 nM; in data set [2], 286 nM; in the data set with mouse spleen cells (setting [9]) it was 100 to 10000 nM. In addition, the IC50 in the data set on mouse spleen cells (anti-mouse IgM antibody 100 μg/mL, read-out: Inhibition of Anti-IgM antibody response) is 100 to 10000 nM; in the data set with mouse spleen cells (setting [10]), 100 to 10000 nM; in the data set with Daudi cells, 397 nM; in data set [3], 471 nM; in the data set on Jurkat cells it was 1450 nM. In addition, the LD50 in data set [4] was in the range of 600 to 900 mg/kg. Moreover, the “proportion of the cells which expressed CD40L” value in data set [5] (CD4 positive, 14.4% without test substance) stood at 3.6%. For the same molecule, the “proportion of CD4-positive cells which expressed CD69” value in data set [5] (28.8% without test substance) is on record as 17.7%. Further, in data set [5] (50.9% without test substance), the “proportion of CD4-negative cells which expressed CD69” value was 22.4%. In addition, the “mutagenesis (colony number of reverse mutation)” value in data set [6] is “negative”.
Molecule `CC(=O)N1CCN(c2nc(N3CCOCC3)nc(-n3c(C(F)F)nc4ccccc43)n2)CC1` [Compound 28, 4-(4-acetylpiperazin-1-yl)-2-(2-difluoromethylbenzimidazol-1-yl)-6-morpholino-1,3,5-triazine] displayed a melting point of 223 °C. Also, the GI50 with MCF-7 cells is 1210 nM. Further, growth with A549 lung cancer cells was halved (GI50) at 830 nM. In addition, in data set [7], growth was halved (GI50) at 270 nM. In data set [1], this molecule gave an IC50 of 1110 nM. This molecule had a concentration at 1 h in [8] of 16100 ng/mL. Further, in the data set with THP-1 cells, the IC50 was 496 nM. For the same molecule, in the data set with mouse spleen cells (setting [9]), the IC50 is 1 to 100 nM. Further, the IC50 in the data set on mouse spleen cells (setting [10]) was ≤ 1 nM. Besides, the IC50 in the data set on Daudi cells stood at 235 nM. Besides, the GI50 with WiDr colon cancer cells was determined as 1270 nM. In the data set with Jurkat cells, this molecule displayed an IC50 of 1800 nM. Besides, the GI50 in the data set with B16F10 melanoma cells is 2660 nM.

The record behind these values is patent publication US8338414B2, “Immunosuppressive agent and anti-tumor agent comprising heterocyclic compound as active ingredient” (Zenyaku Kogyo KabushikiKaisha, priority 2005, dated 2012).
